Measurements published in patent US5300298A, “Methods of treating obesity with purine related compounds” (The Pennsylvania Research Corporation, priority 1992, dated 1994).

Tested on: warm-blooded animal
Test: Example II: tested as BW1433 was tested in Example I (obesity; ratio of muscle mass to fat)
Type: in vivo, rats
Procedure: My initial studies were carried out following acute subcutaneous injections of the drug into male Sprague Dawley rats and into lean and into obese Zucker rats. Blood samples (100 microliter) were taken from the tail of the rats and measurements made of serum glycerol^6. Glycerol is an end product of lipolysis and thus an excellent indicator of the rate of whole body lipolysis. […] I discovered that in the absence of the Formula I compound tested, serum glycerol levels only differ slightly when comparing lean and obese animals. Since there is 3-4 times more fat in the obese animal this is good evidence for sluggish lipolysis per g of fat in the obese. The obese animals however seem to mobilize the fat at an earlier time after removal of their food supply (Table 1), since after 6 hours of fasting the obese serum glycerol levels are much higher than the lean.
Next, I studied the effect of chronic treatment with BW1433. For this purpose I employed 2 ml Alzet mini osmotic pumps. Each pump was loaded with 2 ml of a solution containing BW1433 or with vehicle (aqueous solution adjusted to pH II). The amount of BW1433 was adjusted so that the pump delivered either zero, 0.2 mg or 0.4 mg/Kg/hour to each animal. On the first day the animals had the pumps implanted and were given a priming (2 mg/Kg or 4 mg/Kg) dose of the antagonist. Blood was taken prior to surgery and six hours after the animals were removed from their food supply. On each subsequent day animals had free access to food and water overnight, then their food removed for six hours, and a blood sample taken.
In addition to taking blood samples for glycerol analysis, each animal was weighed every day for seven days. After seven days the animals were fasted overnight and a glucose tolerance test given The animals were then sacrificed and 1 ml blood sample taken for serum insulin and serum BW1433 determination drug levels. Insulin levels were measured with RIA kit (Diagnostic Products) and BW1433 levels were measured fluorometrically after HPLC separation at Burroughs Wellcome, Research Triangle Park, North Carolina. […] Nonetheless, when glucose tolerance curves were administered on day 7, drug-related differences could still be seen in all animals studied. […] This is illustrated more clearly in FIG. 4 where the area under the glucose tolerance curve is shown as a bar for each of the 6 groups of animals. […] FIG. 5 is a chart of the change in weight of treated and untreated lean and obese animals. […] The effect on weight change in each case was maximal at day 3, the day when the glycerol values peaked. Based on these remarkable results, the compounds of Formula I can be administered to obese warm-blooded animals as anti-obesity agents, or administered to farm animals to advantageously increase the ratio of muscle mass to fat therein.

Cn1c(=O)c2nc(-c3ccc(/C=C/C(=O)O)cc3)[nH]c2n(C)c1=O [compound 2, (E)-4-(1,2,3,6-tetrahydro-1,3-dimethyl-2,6-dioxo-9H-purin-8-yl)cinnamic acid]
activity in method of treating obesity in a warm-blooded animal and in increasing the ratio of muscle mass to fat in farm animals: active and effective

CCCn1c(=O)c2nc(-c3ccc(/C=C/C(=O)O)cc3)[nH]c2n(C)c1=O [compound 3, (E)-4-(1,2,3,6-tetrahydro-3-methyl-2,6-dioxo-1-propyl-9H-purin-8-yl)cinnamic acid]
activity in method of treating obesity in a warm-blooded animal and in increasing the ratio of muscle mass to fat in farm animals: active and effective

CCn1c(=O)c2nc(-c3ccc(/C=C/C(=O)O)cc3)[nH]c2n(CC)c1=O [compound 4, (E)-4-(1,3-diethyl-1,2,3,6-tetrahydro-2,6-dioxo-9H-purin-8-yl)cinnamic acid]
activity in method of treating obesity in a warm-blooded animal and in increasing the ratio of muscle mass to fat in farm animals: active and effective

C=CCn1c(=O)c2nc(-c3ccc(/C=C/C(=O)O)cc3)[nH]c2n(CC=C)c1=O [compound 5, (E)-4-(1,3-diallyl-1,2,3,6-tetrahydro-2,6-dioxo-9H-purin-8-yl)cinnamic acid]
activity in method of treating obesity in a warm-blooded animal and in increasing the ratio of muscle mass to fat in farm animals: active and effective

Cn1c(=O)[nH]c(=O)c2nc(-c3ccc(/C=C/C(=O)O)cc3)[nH]c21 [compound 6, (E)-4-(1,2,3,6-tetrahydro-3-methyl-2,6-dioxo-9H-purin-8-yl)cinnamic acid]
activity in method of treating obesity in a warm-blooded animal and in increasing the ratio of muscle mass to fat in farm animals: active and effective

CCn1c(=O)[nH]c(=O)c2nc(-c3ccc(/C=C/C(=O)O)cc3)[nH]c21 [compound 7, (E)-4-(3-ethyl-1,2,3,6-tetrahydro-2,6-dioxo-9H-purin-8-yl)cinnamic acid]
activity in method of treating obesity in a warm-blooded animal and in increasing the ratio of muscle mass to fat in farm animals: active and effective

CCCn1c(=O)[nH]c(=O)c2nc(-c3ccc(/C=C/C(=O)O)cc3)[nH]c21 [compound 8, (E)-4-(1,2,3,6-tetrahydro-2,6-dioxo-3-propyl-9H-purin-8-yl)cinnamic acid]
activity in method of treating obesity in a warm-blooded animal and in increasing the ratio of muscle mass to fat in farm animals: active and effective

CC(C)Cn1c(=O)[nH]c(=O)c2nc(-c3ccc(/C=C/C(=O)O)cc3)[nH]c21 [compound 9, (E)-4-(1,2,3,6-tetrahydro-3-isobutyl-2,6-dioxo-9H-purin-8-yl)cinnamic acid]
activity in method of treating obesity in a warm-blooded animal and in increasing the ratio of muscle mass to fat in farm animals: active and effective

CCCn1c(=O)n(C)c(=O)c2nc(-c3ccc(/C=C/C(=O)O)cc3)[nH]c21 [compound 10, (E)-4-(1,2,3,6-tetrahydro-1-methyl-2,6-dioxo-3-propyl-9H-purin-8-yl)cinnamic acid]
activity in method of treating obesity in a warm-blooded animal and in increasing the ratio of muscle mass to fat in farm animals: active and effective

CC(C)Cn1c(=O)n(C)c(=O)c2nc(-c3ccc(/C=C/C(=O)O)cc3)[nH]c21 [compound 11, (E)-4-(1,2,3,6-tetrahydro-3-isobutyl-1-methyl-2,6-dioxo-9H-purin-8-yl)cinnamic acid]
activity in method of treating obesity in a warm-blooded animal and in increasing the ratio of muscle mass to fat in farm animals: active and effective

CCn1c(=O)c2nc(-c3ccc(/C=C/C(=O)O)cc3)[nH]c2n(C)c1=O [compound 12, (E)-4-(1-ethyl-1,2,3,6-tetrahydro-3-methyl-2,6-dioxo-9H-purin-8-yl)cinnamic acid]
activity in method of treating obesity in a warm-blooded animal and in increasing the ratio of muscle mass to fat in farm animals: active and effective

CCCCn1c(=O)c2nc(-c3ccc(/C=C/C(=O)O)cc3)[nH]c2n(CCCC)c1=O [compound 13, (E)-4-(1,3-dibutyl-1,2,3,6-tetrahydro-2,6-dioxo-9H-purin-8-yl)cinnamic acid]
activity in method of treating obesity in a warm-blooded animal and in increasing the ratio of muscle mass to fat in farm animals: active and effective

O=C(O)/C=C/c1ccc(-c2nc3c(=O)n(Cc4ccccc4)c(=O)n(Cc4ccccc4)c3[nH]2)cc1 [compound 14, (E)-4-(1,3-dibenzyl-1,2,3,6-tetrahydro-2,6-dioxo-9H-purin-8-yl)cinnamicacid]
activity in method of treating obesity in a warm-blooded animal and in increasing the ratio of muscle mass to fat in farm animals: active and effective

CCCCn1c(=O)n(C)c(=O)c2nc(-c3ccc(/C=C/C(=O)O)cc3)[nH]c21 [compound 15, (E)-4-(3-butyl-1,2,3,6-tetrahydro-1-methyl-2,6-dioxo-9H-purin-8-yl)cinnamicacid]
activity in method of treating obesity in a warm-blooded animal and in increasing the ratio of muscle mass to fat in farm animals: active and effective

CCCCn1c(=O)c2nc(-c3ccc(/C=C/C(=O)O)cc3)[nH]c2n(C)c1=O [compound 16, (E)-4-(1-butyl-1,2,3,6-tetrahydro-3-methyl-2,6-dioxo-9H-purin-8-yl)cinnamic acid]
activity in method of treating obesity in a warm-blooded animal and in increasing the ratio of muscle mass to fat in farm animals: active and effective

Cn1c(=O)c2nc(-c3ccc(/C=C/C(=O)O)cc3)[nH]c2n(Cc2ccccc2)c1=O [compound 17, (E)-4-(3-benzyl-1,2,3,6-tetrahydro-1-methyl-2,6-dioxo-9H-purin-8-yl)cinnamic acid]
activity in method of treating obesity in a warm-blooded animal and in increasing the ratio of muscle mass to fat in farm animals: active and effective

CC(C)Cn1c(=O)c2nc(-c3ccc(/C=C/C(=O)O)cc3)[nH]c2n(CC(C)C)c1=O [compound 18, (E)-4-(1,2,3,6-tetrahydro-1,3-diisobutyl-2,6-dioxo-9H-purin-8-yl)cinnamic acid]
activity in method of treating obesity in a warm-blooded animal and in increasing the ratio of muscle mass to fat in farm animals: active and effective

Cn1c(=O)c2[nH]c(-c3ccc(/C=C/C(=O)O)cc3)nc2n(C)c1=S [compound 19, (E)-4-(1,2,3,6-tetrahydro-1,3-dimethyl-6-oxo-2-thio-9H-purin-8-yl)cinnamicacid]
activity in method of treating obesity in a warm-blooded animal and in increasing the ratio of muscle mass to fat in farm animals: active and effective

Cn1c(=O)c2nc(-c3ccc(/C=C/C(=O)O)cc3)[nH]c2n(Cc2ccc(C#N)cc2)c1=O [compound 20, (E)-4-[3-(4-cyanobenzyl)-1,2,3,6-tetrahydro-1-methyl-2,6-dioxo-9H-purin-8-yl]cinnamic acid]
activity in method of treating obesity in a warm-blooded animal and in increasing the ratio of muscle mass to fat in farm animals: active and effective

Cn1c(=O)c2nc(-c3ccc(/C=C/C(=O)O)cc3)[nH]c2n(Cc2cccc(C#N)c2)c1=O [compound 21, (E)-4-[3-(3-cyanobenzyl)-1,2,3,6-tetrahydro-1-methyl-2,6-dioxo-9H-purin-8-yl]cinnamic acid]
activity in method of treating obesity in a warm-blooded animal and in increasing the ratio of muscle mass to fat in farm animals: active and effective

CCCn1c(=O)c2nc(-c3ccc(C#CC(=O)O)cc3)[nH]c2n(CCC)c1=O [compound 22, 3-[4-(1,2,3,6-tetrahydro-2,6-dioxo-1,3-dipropyl-9H-purin-8-yl)phenyl]propiolic acid]
activity in method of treating obesity in a warm-blooded animal and in increasing the ratio of muscle mass to fat in farm animals: active and effective

Cn1c(=O)n(Cc2ccc(C#N)cc2)c(=O)c2nc(-c3ccc(/C=C/C(=O)O)cc3)[nH]c21 [compound 23, (E)-4-[1-(4-cyanobenzyl)-1,2,3,6-tetrahydro-3-methyl-2,6-dioxo-9H-purin-8-yl]cinnamic acid]
activity in method of treating obesity in a warm-blooded animal and in increasing the ratio of muscle mass to fat in farm animals: active and effective

CCCn1c(=O)n(Cc2ccccc2)c(=O)c2nc(-c3ccc(/C=C/C(=O)O)cc3)[nH]c21 [compound 24, (E)-4-(1-benzyl-1,2,3,6-tetrahydro-2,6-dioxo-3-propyl-9H-purin-8-yl)cinnamic acid]
activity in method of treating obesity in a warm-blooded animal and in increasing the ratio of muscle mass to fat in farm animals: active and effective

CCCn1c(=O)c2nc(-c3ccc(/C=C/C(=O)O)cc3)[nH]c2n(Cc2ccccc2)c1=O [compound 25, (E)-4-(3-benzyl-1,2,3,6-tetrahydro-2,6-dioxo-1-propyl-9H-purin-8-yl)cinnamic acid]
activity in method of treating obesity in a warm-blooded animal and in increasing the ratio of muscle mass to fat in farm animals: active and effective
